Experiments:
[1] = tested on: rat recombinant α-2,3-ST; details: cited from earlier work
[2] = target: T1, rat recombinant α-2,6-ST (Rattus norvegicus, UniProt P13721); details: cited from earlier work
T1 sequence (P13721 1-403): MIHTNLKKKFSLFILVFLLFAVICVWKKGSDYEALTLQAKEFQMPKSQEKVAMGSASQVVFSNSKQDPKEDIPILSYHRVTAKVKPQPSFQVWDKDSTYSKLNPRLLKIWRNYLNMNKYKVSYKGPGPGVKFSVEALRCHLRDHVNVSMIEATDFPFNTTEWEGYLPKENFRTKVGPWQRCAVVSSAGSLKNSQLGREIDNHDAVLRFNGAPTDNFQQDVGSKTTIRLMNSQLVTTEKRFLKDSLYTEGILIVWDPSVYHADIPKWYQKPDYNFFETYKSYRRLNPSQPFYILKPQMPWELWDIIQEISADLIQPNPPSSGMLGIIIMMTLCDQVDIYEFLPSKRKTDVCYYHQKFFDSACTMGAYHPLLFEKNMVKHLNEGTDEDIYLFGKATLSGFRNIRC

[3] = tested on: sialyltransferase; details: cited from earlier work
[4] = target: T2, human α-1,3-fucosyltransferase V (Homo sapiens, UniProt Q11128); details: in the presence of guanosine diphosphate (GDP); cited from earlier work
T2 sequence (Q11128 1-374): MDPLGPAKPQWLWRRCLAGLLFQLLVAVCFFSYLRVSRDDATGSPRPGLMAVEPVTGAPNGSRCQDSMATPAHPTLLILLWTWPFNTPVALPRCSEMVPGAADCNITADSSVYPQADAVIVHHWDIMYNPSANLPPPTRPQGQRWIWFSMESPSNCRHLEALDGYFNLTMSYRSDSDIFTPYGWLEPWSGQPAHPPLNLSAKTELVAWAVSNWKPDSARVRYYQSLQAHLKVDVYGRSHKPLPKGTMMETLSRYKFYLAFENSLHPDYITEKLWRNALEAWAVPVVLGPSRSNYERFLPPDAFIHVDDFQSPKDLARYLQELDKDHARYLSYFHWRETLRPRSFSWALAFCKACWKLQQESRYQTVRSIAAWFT

[5] = tested on: PC12 cells; test: Immunocytology: anti-GT1b antibody binding to PC12 cells by flow cytometry; type: cell-based; details: for reduction in anti-ganglioside antibody binding: 3 days of exposure, anti-GT1b mAb
Protocol: (§1) PC12 cells were grown under standard undifferentiated conditions with and without a range of NB-DNJ concentrations (1, 5, 10, 50, 100 and 500 μM). Cells were grown in flasks for immunocytology and analytical studies on ganglioside levels and also in 96-well tissue culture plates for antibody mediated lysis studies. Time points examined were day 0, 1, 2 and 3, and 2 and 3 days post-compound wash out.
PC12 cells were grown in DMEM containing 7.5% FCS and 7.5% horse serum. The medium was supplemented with 0, 1, 5, 10, 50, 100 or 500 μM NB-DNJ and the cells cultured for 3 days. The media was then replaced with DMEM without NB-DNJ and the cells cultured for a further 3 days. At days 0, 1, 2, 3 and days 2 and 3 post NB-DNJ treatment, cells were harvested and ganglioside levels assessed by analysing anti-ganglioside antibody binding using flow cytometry. Briefly, 1×10^5 cells were stained with 10 μg/ml of a murine anti-GT1b mAb for 1 hour at room temperature. Binding was then detected by a FITC labelled antibody with specificity for mouse IgG. Binding is expressed in FIGS. 2 and 3 as the mean fluorescence of triplicate experiments. To allow any reduction in ganglioside levels to be clearly visualised at each time point, the mean fluorescence is shown as a percentage of that at day 0. Error bars indicate sem.

[6] = tested on: PC12 cells; test: Anti-ganglioside antibody / complement-mediated lysis of PC12 cells (LDH release); type: cell-based
Protocol: as §1
The consequences of reduced anti-ganglioside antibody binding treated cells were evaluated by measuring antibody-mediated cytotoxicity (FIGS. 4 and 5). Thus, cells from each day and NB-DNJ concentration were also assayed for anti-ganglioside antibody-mediated cytotoxicity. Lysis studies were conducted using anti-ganglioside antibodies in conjunction with fresh human serum as a source of complement. Cell viability was quantitated by colourimetric assay measuring LDH release upon cell lysis.
After coating onto 96 well tissue culture plates (5×10^3 cells/well), the cells were incubated with anti-GT1b antibody at 10 μg/ml for 1 hour at room temperature. Then, 10% human serum was added as a source of complement for a further hour at 37° C. Complement-mediated cell lysis was measured using a Cytotox 96 cytotoxic assay kit (Promega), following the instructions supplied. LDH released upon cell lysis was measured by a colourimetric assay; a tetrazolium salt is converted into a red formazan product. […]

[7] = tested on: PC12 cells; test: HPLC analysis of GSL levels in NB-DNJ treated PC12 cells; type: cell-based; details: day 3, PC12 cells, preliminary analysis
Protocol: as §1
HPLC analysis of the treated and untreated cells was performed to determine the extent of GSL depletion that results from NB-DNJ treatment.

[8] = tested on: RAW cells; test: TLC immuno-overlay of RAW cell ganglioside extract with GBS patient serum (anti-GM1 binding); type: cell-based; details: for GBS patient sera antibody binding to GM1: RAW cells grown in 0 to 1000 μM drug, patient '8' serum (FIG. 13)
Protocol: GSL was extracted from RAW cells incubated in a range of NB-DNJ and NB-DGJ concentrations from 0 to 1 mM and separated by TLC. Extract was run parallel to purified GM1 on duplicate TLC plates. Immuno-overlay was carried out using patient ‘8’ and control ‘4’ sera.
The procedure was then repeated with standardisation of the amount of material loaded onto the gel (FIG. 14). This was calculated using the bicinchoninic acid protein quantification method (Chan et al., 1993). […] No binding was observed when the overlay was conducted with control serum, indicating specificity of this effect to GBS auto-antibody.

[9] = tested on: RAW cells; test: Orcinol-stained TLC of GM1 in RAW cell extract; type: cell-based; details: for IC50: GM1 in RAW cells, stated only as comparable to 50 μM, read-out: apparent IC50 estimated from orcinol stained RAW TLC; for levels of GM1 in RAW cells: orcinol staining, 0 to 1000 μM drug (FIG. 15)
From the text: A third TLC plate (FIG. 15) with standardised amounts of sample was run in an identical manner to those in FIG. 14 but stained with orcinol.

[10] = tested on: PC12 cells; test: HPLC analysis of PC12 gangliosides; type: cell-based; details: for ganglioside depletion in PC12 cells: HPLC (FIG. 17)
Protocol: In the absence of detectable binding by TLC immuno-overlay, a new technique was necessary to analyse the identity and relative abundance of gangliosides present on PC12 cells. To this end, HPLC was carried out on ganglioside extracted from PC12 cells grown in a range of NB-DGJ and NB-DNJ concentrations from 0-1 mM.

[11] = tested on: Neuroblastoma NB1 cells; test: Fluorescence microscopy of sera binding to Neuroblastoma NB1 cells; type: cell-based; details: NB1 cells treated with various concentrations; some GBS serum samples such as patient 7
From the text: This non-specific staining hinders interpretation of results when using whole sera. Cell staining indicated the necessity for a technique which provides isolated antigen, thereby reducing the potential of non-specific staining.

[12] = tested on: GSL levels; details: mice, cited from earlier work
[13] = cited from earlier work; for CNS penetration: mouse, in vivo; for neurological side effects: treatment of adult mice
[14] = tested on: total ganglioside and GM1 content; details: cerebrum-brainstem; cited from earlier work
[15] = tested on: GSL biosynthesis; details: compared with NB-DNJ; cited from earlier work
[16] = mouse models of GSL storage diseases; cited from earlier work
[17] = RAW cells, standardised amount of material (FIG. 14)

In the case of cytidin-5′-yl sialylethylphosphonate, the IC50 [1] is given as 47 µM and the IC50 [2] is given as 340 µM.
For `C[C@@H]1O[C@@H](O[C@H]2[C@H](O[C@H]3[C@H](O[C@H]4CC[C@@]5(C)[C@@H](CC[C@]6(C)[C@@H]5CC=C5[C@@H]7CC(C)(C)C[C@@H](O)[C@]7(C)CC[C@]56C)[C@@]4(C)CO)O[C@H](C(=O)O)[C@@H](O)[C@@H]3O)O[C@H](CO)[C@H](O)[C@@H]2O)[C@H](O)[C@H](O)[C@H]1O` [Soyasaponin I], the sialyltransferase inhibition [3] is given as “potent and specific”.
For `CCCO[C@H]1O[C@H](CO)[C@@H](O[C@@H]2O[C@H](CO)[C@H](O)[C@H](O)[C@H]2O)[C@H](OCCN2C(C)C(O)C(O)C(O)C2CO)[C@H]1NC(C)=O` (stereo partly drawn) [propyl 2-acetamido-2-deoxy-4-O-(β-D-galactopyranosyl)-3-O-(2-(N-(β-L-homofaconojirimycinyl))ethyl)-α-D-glucopyranoside], the “inhibition of human α-1,3-fucosyltransferase V” value [4] is listed as “effective inhibitor”.
With `CCCCN1C[C@H](O)[C@@H](O)[C@H](O)[C@H]1CO` [NB-DNJ, N-butyldeoxynojirimycin] the anti-ganglioside antibody binding ([5]; 50 μM and higher concentrations) was “significant time dependent reduction”, the “reduction in anti-ganglioside antibody binding” value ([5]; 100 μM) was 70% and the “reduction in anti-ganglioside antibody binding” value ([5]; 500 μM) was 90%. For the same molecule, the “anti-ganglioside antibody binding after wash out of the compound” value ([5]; by day 3 post wash out) was “returning to the levels of untreated cells”, the “protection from complement mediated lysis” value ([6]; 100 uM) was “approximately 60%” and the “protection from complement mediated lysis” value ([6]; 500 uM) was roughly 80%. The GSL levels [7] was 10-20 % of control, the “GBS patient sera antibody binding to GM1” value [8] was “drug dependent decrease” and the “patient anti-GM1 antibody binding as drug concentration was increased” value [8, 17] was “progressively lower levels”. For the same molecule, the IC50 [9] was roughly 50 µM, the “levels of GM1 in RAW cells” value [9] was “drug dependent decrease” and the “ganglioside depletion in PC12 cells” value ([10]; 50 μM) was “significant ganglioside depletion”. For the same molecule, the “ganglioside depletion in PC12 cells” value ([10]; 1 mM) was “Further depletion”, the “fluorescence of serum binding on drug-treated cells” value [11] was “decrease in fluorescence” and the “time at which effect on GSL levels stabilizes” value [12] was 10 days. The GSL levels ([12]; within a day of treatment) was “measurable decrease”, the CNS penetration [13] was “penetrate the CNS” and the neurological side effects [13] was “not to cause neurological side effects”.
With `CCCCN1C[C@H](O)[C@@H](O)[C@@H](O)[C@H]1CO` [NB-DGJ, N-butyldeoxygalactonojirimycin] the “GBS patient sera antibody binding to GM1” value [8] was “drug dependent decrease”, the “drug dependent decrease in antibody binding to GM1, comparison of the two drugs” value ([8]; RAW cells, FIG. 13) was “slightly more efficient” and the “decrease of patient anti-GM1 antibody binding, comparison of the two drugs” value [8, 17] was “more pronounced”. For the same molecule, the “patient anti-GM1 antibody binding as drug concentration was increased” value [8, 17] was “progressively lower levels”, the IC50 [9] was roughly 50 µM and the “levels of GM1 in RAW cells” value [9] was “drug dependent decrease”. For the same molecule, the “ganglioside depletion in PC12 cells” value ([10]; 50 μM) was “significant ganglioside depletion”, the “ganglioside depletion in PC12 cells” value ([10]; 1 mM) was “Further depletion” and the “inhibitor potency, comparison of the two drugs” value ([10]; PC12 cells, HPLC) was “more a potent inhibitor”. The “fluorescence of serum binding on drug-treated cells” value [11] was “decrease in fluorescence”, the CNS penetration [13] was “penetrate the CNS” and the neurological side effects [13] was “not to cause neurological side effects”. For the same molecule, the “total ganglioside and GM1 content” value [14] was “marked reduction”, the “inhibition of GSL biosynthesis” value [15] was “comparably to NB-DNJ” and the tolerability [16] was “very well tolerated”.
